# Source: paper PMC10721329, “Quisinostat is a brain-penetrant radiosensitizer in glioblastoma” (JCI Insight, 2023)
# Several values for one entry are separate records, joined by “and”; a condition that tells them apart may be missing. Equal entries are not always repeated.
# Columns and labels:
# [1] = Stability in mouse plasma at 37°C; assay type: in vitro ADME; conditions: for [QST] mouse plasma at 37C, raw response / [QST], % of control: replicates; for [QST], % of control: mouse plasma
# Procedure: Hydroxamic acid–based compounds have been reported to display poor stability and high plasma clearance due to the presence of arylesterases and carboxylesterases in rodent blood ([34]). Therefore, we measured the stability of QST in mouse plasma and brain to determine whether drug degradation occurred during our sample preparations and equilibrium dialyses for the determination of unbound drug level (performed at 37°C). […] QST degradation was also observed in mouse brain homogenate (Figure 6B). However, perfusion of mice before brain collection prevented rapid drug degradation in the brain matrix. […] Degradation of QST can also be constrained if plasma and brain samples are processed at 4°C (Supplemental Figure 4A). All subsequent sample preparations were therefore performed on ice-cold baths to avoid degradation of QST in our PK analyses. […] The observed stability is probably due to the absence of esterases in human matrices, which are responsible for degradation of QST ([34]). Because we employed QST in several in vitro studies (Figures 1–4), the stability of the molecule was also tested in the cell media used to culture GSCs (neurobasal medium; see Methods).
# Stability Study in Mouse Plasma, Mouse Brain, Human Plasma, Human Brain, and Neural […]
# The stability of QST was determined in BALB/c mouse plasma, male nude athymic perfused and nonperfused mouse brain homogenate (1:9 w/v of PBS; pH 7.4), human brain (obtained from VRL Eurofins) homogenate (1:4 w/v of PBS; pH 7.4), pooled human plasma (Innovative Research), and neurobasal media. QST stock solutions (1 mM) were prepared in acetonitrile, subsequently diluted in a 40% methanol mixture, and added t o the matrices to make […]
# […] Then 50 or 30 µL of either plasma or brain homogenate containing QST were aliquoted into 1.5-mL microcentrifuge tubes (Eppendorf) and were incubated at either 4 °C or 37 °C for 0, 2, 4, 6, 12, or 24 hours (n = 3 at each time point).
# The stability of QST in mouse plasma was also tested at 0, 2, 8, 16, or 24 hours (n = 3 at each time point) in the presence of esterase inhibitors: 0.25 mM BNPP, 1mM dithiobis(2-nitrobenzoic acid) (DTNB), or 1.25 mM phenylmethylsulfonyl fluoride (PMSF). Plasma and brain homogenate samples were stored at −80 °C until LC-MS/MS analysis. […]
# orthotopic GB126 tumors = experiment: Survival study, orthotopic GB126 PDX, QST with or without IR; assay type: in vivo, athymic nude mice; conditions: for Survival, Days Post Injection (death): GB126 PDX, individual mice; for increase of median survival versus vehicle: orthotopic GB126 PDX
# Procedure: We additionally questioned whether QST, either alone or in combination with IR, could extend the survival of tumor-bearing mice. In this study, mice received the same treatments described above, but after completion of the 1-week IR regimen, mice continued to receive QST at 10 mg/kg or vehicle solution on MWF until study completion, as determined by large tumor burden and onset of neurological symptoms (Figure 8A). […] Although QST monotherapy slowed tumor growth, median survival for the QST-treated mice was only 4 days longer than for the vehicle-treated mice (P < 0.01), and IR alone increased median survival by 17 days (P < 0.001; Figure 8D). However, combining QST with IR led to a significant increase in median survival (37 days, P < 0.001) compared with the vehicle (Figure 8D).
# Seven-week-old Foxn1^nu nude male mice (The Jackson Laboratory) were used for in vivo orthotopic transplantation of luciferized GB126 ([…]) cells (at a density of 50,000 cells/μL). All procedures were performed as described elsewhere ([11]). All mice were observed daily and were sacrificed upon the onset of severe neurological symptoms and more than 10% body weight loss. Survival data were plotted and analyzed using GraphPad Prism 8. See Supplemental Methods for detailed in vivo methods. […]
# treated with 2 Gy of ionizing radiation on MWF for a total 6 Gy (3 doses). Ionizing radiation was administered with the RS2000 series biological research irradiator (Rad Source Technologies). […]
# Treatment of Mice with Intracranially Implanted QST and/or Radiation
# Mice with implanted tumors were allowed to grow until the tumor bioluminescence score reached […] radiance (p/s/[…]/sr). Mice were randomized into groups before treatment. For survival studies, mice underwent treatment on MWF for the entire duration of the experiment until moribund. For mice receiving IR treatment with or without QST, mice were treated with 2 […]
# Gy on MWF for a total of 6 Gy in the first week of treatment. Treatment groups included vehicle (50% PEG-3000), QST (10 mg/kg) alone, 6 Gy whole-brain IR treatment with vehicle, and 6 Gy whole-brain IR treatment with 10 mg/kg QST. QST was administered to mice through intraperitoneal injections two hours prior to whole-brain radiation treatment. Upon completion of the radiation regimen, IR-treated mice subsequently received QST or vehicle alone for the rest of the experiment. Tumor growth and treatment response was monitored by IVIS bioluminescence once per week. For survival studies, mice were sacrificed, and samples were collected for PD and PK analyses once moribund 2 hours after treatment with a final dose of QST (10 mg/kg).
# For short-term PK-PD correlation studies, tumor-bearing mice were randomized into groups and underwent a single week of treatment with QST (10 mg/kg) on MWF. […]
structure (smiles),measurement,setting,value
"Cn1cc(CNCC2CCN(c3ncc(C(=O)NO)cn3)CC2)c2ccccc21 [QST, quisinostat]","[QST] mouse plasma at 37C, raw response, Average","[1]; 500 nM, Time 0",1.911
same,"[QST] mouse plasma at 37C, raw response","[1]; 500 nM, Time 0",1.823 and 1.9096 and 2.002
same,"[QST] mouse plasma at 37C, raw response, Average","[1]; 500 nM, Time 1",0.7582
same,"[QST] mouse plasma at 37C, raw response","[1]; 500 nM, Time 1",0.7296 and 0.7817 and 0.7634
same,"[QST] mouse plasma at 37C, raw response, Average","[1]; 500 nM, Time 2",0.2892
same,"[QST] mouse plasma at 37C, raw response","[1]; 500 nM, Time 2",0.2668 and 0.314 and 0.2868
same,"[QST] mouse plasma at 37C, raw response, Average","[1]; 500 nM, Time 4",0.02578
same,"[QST] mouse plasma at 37C, raw response, Average","[1]; 500 nM, Time 8",0.00189
same,"[QST] mouse plasma at 37C, raw response","[1]; 500 nM, Time 8",0.00167 and 0.04867 and 0.00211
same,half-life,"[1]; BALB/c, mouse, plasma, 37°C, 8-hour incubation",~1 h
same,"[QST] mouse plasma at 37C, raw response",[1]; Time 4,0.02689 and 0.02585 and 0.0246
same,"[QST], % of control","[1]; 10 nM, Time 6 hrs",2.9% and 3.1% (2×)
same,"[QST], % of control","[1]; 10 nM, Time 12 hrs",2.6% and 2% and 2.1%
same,"[QST], % of control","[1]; 100 nM, Time 6 hrs",1.4% (2×) and 1.3%
same,"[QST], % of control","[1]; 100 nM, Time 12 hrs",0.1% (2×) and 2.5%
same,"Survival, Days Post Injection (death)",orthotopic GB126 tumors; QST 10 mg/kg + IR 6 Gy,79 days and 85 days and 83 days and 86 days and 75 days and 84 days and 82 days
same,"Survival, Days Post Injection (death)",orthotopic GB126 tumors; QST 10 mg/kg alone,65 days and 50 days and 49 days and 48 days and 46 days and 57 days and 54 days and 66 days
same,increase of median survival versus vehicle,orthotopic GB126 tumors; QST 10 mg/kg MWF + IR 6 Gy,37 days
same,increase of median survival versus vehicle,orthotopic GB126 tumors; QST 10 mg/kg MWF monotherapy,4 days
